In ChEMBL document CHEMBL1154822, “Synthesis and antiproliferative activity of 7-azaindirubin-3'-oxime, a 7-aza isostere of the natural indirubin pharmacophore” (J Nat Prod, 2009):

Key:
OVCAR-5 = assay: Cytotoxicity against human OVCAR5 cells assessed as cell growth at 1 mM after 1 to 11 days by MTT assay; type: functional; conditions: read-out: Activity
[1] = Cytotoxicity against human Hs 578T cells assessed as cell growth at 1 uM after 1 to 11 days by MTT assay; type: functional; conditions: read-out: Activity
BT-549 [2] = assay: Cytotoxicity against human BT549 cells after 1 to 11 days by MTT assay; type: functional
MOLT-4 = assay: Cytotoxicity against human MOLT4 cells assessed as cell growth at 0.1 uM after 1 to 11 days by MTT assay; type: functional; conditions: read-out: Activity
RXF 393 [3] = assay: Cytotoxicity against human […] cells assessed as cell growth at 10 uM after 1 to 11 days by MTT assay; type: functional; conditions: read-out: Activity
SK-OV-3 [4] = assay: Cytotoxicity against human SKOV3 cells assessed as cell growth at 10 uM after 1 to 11 days by MTT assay; type: functional; conditions: read-out: Activity
NCI-H460 [5] = assay: Cytotoxicity against human NCI-H460 cells assessed as cell growth at 1 mM after 1 to 11 days by MTT assay; type: functional; conditions: read-out: Activity
HCT-15 [6] = assay: Cytotoxicity against human HCT15 cells assessed as cell growth at 10 uM after 1 to 11 days by MTT assay; type: functional; conditions: read-out: Activity
HOP-92 = assay: Cytotoxicity against human HOP92 cells assessed as cell growth at 1 mM after 1 to 11 days by MTT assay; type: functional; conditions: read-out: Activity
SF-268 [7] = assay: Cytotoxicity against human SF268 cells assessed as cell growth at 10 uM after 1 to 11 days by MTT assay; type: functional; conditions: read-out: Activity
NCI-H460 [8] = assay: Cytotoxicity against human NCI-H460 cells assessed as cell growth at 10 uM after 1 to 11 days by MTT assay; type: functional; conditions: read-out: Activity
U-251 [9] = assay: Cytotoxicity against human U251 cells assessed as cell growth at 0.1 uM after 1 to 11 days by MTT assay; type: functional; conditions: read-out: Activity
HOP-62 = assay: Cytotoxicity against human HOP62 cells assessed as cell growth at 100 uM after 1 to 11 days by MTT assay; type: functional; conditions: read-out: Activity
MCF7 = assay: Cytotoxicity against human MCF7 cells assessed as cell growth at 1 uM after 1 to 11 days by MTT assay; type: functional; conditions: read-out: Activity
RXF 393 [10] = assay: Cytotoxicity against human […] cells assessed as cell growth at 1 uM after 1 to 11 days by MTT assay; type: functional; conditions: read-out: Activity
M14 = assay: Cytotoxicity against human M14 cells assessed as cell growth at 100 uM after 1 to 11 days by MTT assay; type: functional; conditions: read-out: Activity
HCT-15 [11] = assay: Cytotoxicity against human HCT15 cells assessed as cell growth at 1 uM after 1 to 11 days by MTT assay; type: functional; conditions: read-out: Activity
RXF 393 [12] = assay: Cytotoxicity against human […] cells assessed as cell growth at 100 uM after 1 to 11 days by MTT assay; type: functional; conditions: read-out: Activity
HCC 2998 = assay: Cytotoxicity against human HCC2998 cells assessed as cell growth at 1 uM after 1 to 11 days by MTT assay; type: functional; conditions: read-out: Activity
HL-60(TB) = assay: Cytotoxicity against human HL-60(TB) cells assessed as cell growth at 1 mM after 1 to 11 days by MTT assay; type: functional; conditions: read-out: Activity
OVCAR-3 = assay: Cytotoxicity against human OVCAR-3 cells assessed as cell growth at 0.1 uM after 1 to 11 days by MTT assay; type: functional; conditions: read-out: Activity
SF-268 [13] = assay: Cytotoxicity against human SF268 cells assessed as cell growth at 1 mM after 1 to 11 days by MTT assay; type: functional; conditions: read-out: Activity
786-0 = assay: Cytotoxicity against human 786-0 cells assessed as cell growth at 1 mM after 1 to 11 days by MTT assay; type: functional; conditions: read-out: Activity
U-251 [14] = assay: Cytotoxicity against human U251 cells assessed as cell growth at 1 mM after 1 to 11 days by MTT assay; type: functional; conditions: read-out: Activity
UACC-62 [15] = assay: Cytotoxicity against human UACC62 cells assessed as cell growth at 0.1 uM after 1 to 11 days by MTT assay; type: functional; conditions: read-out: Activity
RXF 393 [16] = assay: Cytotoxicity against human […] cells assessed as cell growth at 0.1 uM after 1 to 11 days by MTT assay; type: functional; conditions: read-out: Activity
SK-OV-3 [17] = assay: Cytotoxicity against human SKOV3 cells assessed as cell growth at 100 uM after 1 to 11 days by MTT assay; type: functional; conditions: read-out: Activity
UO-31 [18] = assay: Cytotoxicity against human UO31 cells assessed as cell growth at 0.1 uM after 1 to 11 days by MTT assay; type: functional; conditions: read-out: Activity
SK-MEL-28 = assay: Cytotoxicity against human SK-MEL-28 cells after 1 to 11 days by MTT assay; type: functional
ACHN [19] = assay: Cytotoxicity against human ACHN cells assessed as cell growth at 1 uM after 1 to 11 days by MTT assay; type: functional; conditions: read-out: Activity
NCI-H522 = assay: Cytotoxicity against human NCI-H522 cells assessed as cell growth at 0.1 uM after 1 to 11 days by MTT assay; type: functional; conditions: read-out: Activity
MDA-MB-231 [20] = assay: Cytotoxicity against human MDA-MB-231 cells assessed as cell growth at 0.1 uM after 1 to 11 days by MTT assay; type: functional; conditions: read-out: Activity
UO-31 [21] = assay: Cytotoxicity against human UO31 cells after 1 to 11 days by MTT assay; type: functional
PC-3 = assay: Cytotoxicity against human PC3 cells assessed as cell growth at 10 uM after 1 to 11 days by MTT assay; type: functional; conditions: read-out: Activity
NCI-H322M = assay: Cytotoxicity against human NCI-H322M cells assessed as cell growth at 100 uM after 1 to 11 days by MTT assay; type: functional; conditions: read-out: Activity
BT-549 [22] = assay: Cytotoxicity against human BT549 cells assessed as cell growth at 100 uM after 1 to 11 days by MTT assay; type: functional; conditions: read-out: Activity
[23] = biological target: Glycogen synthase kinase-3 beta (Homo sapiens) (UniProt P49841); assay: Inhibition of human GSK3-beta assessed as residual enzyme activity at 3 uM after 40 mins by scintillation counting
UACC-62 [24] = assay: Cytotoxicity against human UACC62 cells after 1 to 11 days by MTT assay; type: functional
KM12 = assay: Cytotoxicity against human KM12 cells assessed as cell growth at 0.1 uM after 1 to 11 days by MTT assay; type: functional; conditions: read-out: Activity
T47D = assay: Cytotoxicity against human T47D cells after 1 to 11 days by MTT assay; type: functional
SF-539 = assay: Cytotoxicity against human SF539 cells after 1 to 11 days by MTT assay; type: functional
COLO 205 = assay: Cytotoxicity against human COLO205 cells assessed as cell growth at 1 uM after 1 to 11 days by MTT assay; type: functional; conditions: read-out: Activity
ACHN [25] = assay: Cytotoxicity against human ACHN cells assessed as cell growth at 10 uM after 1 to 11 days by MTT assay; type: functional; conditions: read-out: Activity
MDA-MB-231 [26] = assay: Cytotoxicity against human MDA-MB-231 cells after 1 to 11 days by MTT assay; type: functional
[27] = read-out: LC50 (the source's name)

Sequence of Glycogen synthase kinase-3 beta (Homo sapiens) (P49841 whole entry, looked up): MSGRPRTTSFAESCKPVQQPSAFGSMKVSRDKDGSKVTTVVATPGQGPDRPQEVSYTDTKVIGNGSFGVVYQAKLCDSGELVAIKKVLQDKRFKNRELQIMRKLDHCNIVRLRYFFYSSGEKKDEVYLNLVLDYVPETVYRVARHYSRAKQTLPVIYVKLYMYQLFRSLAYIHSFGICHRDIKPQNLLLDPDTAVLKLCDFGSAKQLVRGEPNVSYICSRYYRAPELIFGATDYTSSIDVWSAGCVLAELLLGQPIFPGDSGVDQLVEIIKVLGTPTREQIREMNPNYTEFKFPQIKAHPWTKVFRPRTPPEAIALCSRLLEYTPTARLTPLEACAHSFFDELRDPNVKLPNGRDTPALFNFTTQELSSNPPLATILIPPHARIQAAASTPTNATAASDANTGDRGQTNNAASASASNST

O=C1Nc2ncccc2/C1=C1/Nc2ccccc2/C1=N\O
growth at 1000 µM (OVCAR-5): 49%
growth at 1 µM [1]: 98%
GI50 (BT-549 [2]): 5.41 µM
TGI (BT-549 [2]): > 100 µM
CC50 (BT-549 [2]; [27]): > 100 µM
growth at 0.1 µM (MOLT-4): 92%
growth at 10 µM (RXF 393 [3]): 55%
growth at 10 µM (SK-OV-3 [4]): 69%
growth at 1000 µM (NCI-H460 [5]): 32%
growth at 10 µM (HCT-15 [6]): 80%
growth at 1000 µM (HOP-92): 44%
growth at 10 µM (SF-268 [7]): 91%
growth at 10 µM (NCI-H460 [8]): 97%
growth at 0.1 µM (U-251 [9]): 97%
growth at 100 µM (HOP-62): 63%
growth at 1 µM (MCF7): 91%
growth at 1 µM (RXF 393 [10]): 94%
growth at 100 µM (M14): 46%
growth at 1 µM (HCT-15 [11]): 96%
growth at 100 µM (RXF 393 [12]): -9%
growth at 1 µM (HCC 2998): 87%
growth at 1000 µM (HL-60(TB)): 7%
growth at 0.1 µM (OVCAR-3): 99%
growth at 1000 µM (SF-268 [13]): 54%
growth at 1000 µM (786-0): 39%
growth at 1000 µM (U-251 [14]): 68%
growth at 0.1 µM (UACC-62 [15]): 94%
growth at 0.1 µM (RXF 393 [16]): 93%
growth at 100 µM (SK-OV-3 [17]): -6%
growth at 0.1 µM (UO-31 [18]): 85%
GI50 (SK-MEL-28): 32.8 µM
TGI (SK-MEL-28): > 100 µM
CC50 (SK-MEL-28; [27]): > 100 µM
growth at 1 µM (ACHN [19]): 95%
growth at 0.1 µM (NCI-H522): 100%
growth at 0.1 µM (MDA-MB-231 [20]): 99%
GI50 (UO-31 [21]): 1.58 µM
TGI (UO-31 [21]): > 100 µM
CC50 (UO-31 [21]; [27]): > 100 µM
growth at 10 µM (PC-3): 82%
growth at 100 µM (NCI-H322M): 8%
growth at 100 µM (BT-549 [22]): 43%
Activity [23]: 18%
GI50 (UACC-62 [24]): 3.49 µM
TGI (UACC-62 [24]): > 100 µM
CC50 (UACC-62 [24]; [27]): > 100 µM
growth at 0.1 µM (KM12): 95%
GI50 (T47D): 2.03 µM
TGI (T47D): > 100 µM
CC50 (T47D; [27]): > 100 µM
GI50 (SF-539): > 100 µM
TGI (SF-539): > 100 µM
CC50 (SF-539; [27]): > 100 µM
growth at 1 µM (COLO 205): 87%
growth at 10 µM (ACHN [25]): 72%
GI50 (MDA-MB-231 [26]): 5.28 µM
TGI (MDA-MB-231 [26]): > 100 µM
CC50 (MDA-MB-231 [26]; [27]): > 100 µM
